Source: patent US20240197726A1, “NOVEL TETRAHYDROISOQUINOLINE ALKALOID COMPOUND CONTAINING MACROCYCLE” (THE UNIVERSITY OF TOKYO, priority 2021, published 2024)
Read-outs that look alike come from different tables or passages of the source.

Tests used:
Assay type in all cases: cell-based
[1] = system: SF-295 central nervous system cancer cells; assay: antitumor activity, sulforhodamine B cell growth assay, SF-295; details: SF-295, drug exposure 48 hours, read-out: GI50 value: 50% growth inhibitory concentration
Procedure: (§1) The THIQ compound containing a macrocyclic structure of the present invention was administered to various cancer cell lines, and the antitumor activity (Go value) was observed. Specifically, verification was performed according to the literature (Yamori, T.; Matsunaga, A.; Sato, S.; Yamazaki, K.; Komi, A.; Ishizu, K. et al. Cancer Res. 1999, 59, 4042) by the following procedure.
(§2) Cells were plated at an appropriate density in a 96-well plate in RPMI 1640 together with 5% fetal bovine serum, and adhered overnight. The cells were exposed to a drug for 48 hours. Then, according to the sulforhodamine B assay described by Skehan et al (Skehan P., Storeng R., Scudiero D., Monks A., McMahon J., Vistica D., Warren J. T., Bokesch H., Kenney S., Boyd M. R. J Natl. Cancer Inst, 1990, 82, 1107-1112), the cell growth rate was measured. The absorbance of the control well (C) and the test well (T) was measured at 525 nm. In addition, the time at which the drug was added was set as time 0, and the absorbance for the test well (T0) was measured. Using these measured values, the cell growth inhibitory effect (% growth=PG) was calculated by the following formula at each concentration of the drug.
(§3) (T<T0): PG=100×[(T−T0)/T]
(§4) The PG values determined above for each cell line were plotted against the concentration (logarithm) on a semi-logarithmic graph, and summarized for each visceral cancer. Concentrations at which the dose-response curve of each cell line crossed the horizontal line of PG=50%, 0%, or −50% were calculated. These concentrations were defined as Log GI50, Log TGI, and Log LC50. Actually, using two data points of the drug concentration before and after crossing each horizontal line, the drug concentration (logarithmic value) at the intersection of the straight line connecting the two points and the horizontal line for each PG was calculated.

[2] = system: St-4 gastric cancer cells; assay: antitumor activity, sulforhodamine B cell growth assay, St-4; details: St-4 (SI-4 in Tables 2-11), drug exposure 48 hours; read-out: GI50 value: 50% growth inhibitory concentration
Procedure: as §1, §2, §3, §4

[3] = system: NCI-H226 lung cancer cells; assay: antitumor activity, sulforhodamine B cell growth assay, NCI-H226; details: NCI-H226, drug exposure 48 hours, read-out: GI50 value: 50% growth inhibitory concentration
Procedure: as §1, §2, §3, §4

[4] = system: SNB-78 central nervous system cancer cells; assay: antitumor activity, sulforhodamine B cell growth assay, SNB-78; details: SNB-78, drug exposure 48 hours, read-out: GI50 value: 50% growth inhibitory concentration
Procedure: as §1, §2, §3, §4

[5] = system: RXF-631L kidney cancer cells; assay: antitumor activity, sulforhodamine B cell growth assay, RXF-631L; details: RXF-631L, drug exposure 48 hours; read-out: GI50 value: 50% growth inhibitory concentration
Procedure: as §1, §2, §3, §4

[6] = system: MDA-MB-231 breast cancer cells; assay: antitumor activity, sulforhodamine B cell growth assay, MDA-MB-231; details: MDA-MB-231, drug exposure 48 hours, read-out: GI50 value: 50% growth inhibitory concentration
Procedure: as §1, §2, §3, §4

[7] = system: HCT-116 colorectal cancer cells; assay: antitumor activity, sulforhodamine B cell growth assay, HCT-116; details: HCT-116, drug exposure 48 hours, read-out: GI50 value: 50% growth inhibitory concentration
Procedure: as §1, §2, §3, §4

[8] = system: OVCAR-5 cervical cancer cells; assay: antitumor activity, sulforhodamine B cell growth assay, OVCAR-5; details: OVCAR-5, drug exposure 48 hours, read-out: GI50 value: 50% growth inhibitory concentration
Procedure: as §1, §2, §3, §4

[9] = system: HCT-15 colorectal cancer cells; assay: antitumor activity, sulforhodamine B cell growth assay, HCT-15; details: HCT-15, drug exposure 48 hours, read-out: GI50 value: 50% growth inhibitory concentration
Procedure: as §1, §2, §3, §4

[10] = system: MKN-A gastric cancer cells; assay: antitumor activity, sulforhodamine B cell growth assay, MKN-A; details: MKN-A, drug exposure 48 hours; read-out: GI50 value: 50% growth inhibitory concentration
Procedure: as §1, §2, §3, §4

ACHN kidney cancer cells = assay: antitumor activity, sulforhodamine B cell growth assay, ACHN; details: ACHN, drug exposure 48 hours, read-out: GI50 value: 50% growth inhibitory concentration
Procedure: as §1, §2, §3, §4

OVCAR-4 cancer cells = assay: antitumor activity, sulforhodamine B cell growth assay, OVCAR-4; details: OVCAR-4, drug exposure 48 hours, read-out: GI50 value: 50% growth inhibitory concentration
Procedure: as §1, §2, §3, §4

[11] = system: HBC-4 breast cancer cells; assay: antitumor activity, sulforhodamine B cell growth assay, HBC-4; details: HBC-4, drug exposure 48 hours, read-out: GI50 value: 50% growth inhibitory concentration
Procedure: as §1, §2, §3, §4

[12] = system: HT-29 colorectal cancer cells; assay: antitumor activity, sulforhodamine B cell growth assay, HT-29; details: HT-29, drug exposure 48 hours, read-out: GI50 value: 50% growth inhibitory concentration
Procedure: as §1, §2, §3, §4

[13] = system: NCI-H522 lung cancer cells; assay: antitumor activity, sulforhodamine B cell growth assay, NCI-H522; details: NCI-H522, drug exposure 48 hours, read-out: GI50 value: 50% growth inhibitory concentration
Procedure: as §1, §2, §3, §4

DMS114 lung cancer cells = assay: antitumor activity, sulforhodamine B cell growth assay, DMS114; details: DMS114, drug exposure 48 hours, read-out: GI50 value: 50% growth inhibitory concentration
Procedure: as §1, §2, §3, §4

[14] = system: MKN-B gastric cancer cells; assay: antitumor activity, sulforhodamine B cell growth assay, MKN-B; details: MKN-B, drug exposure 48 hours; read-out: GI50 value: 50% growth inhibitory concentration
Procedure: as §1, §2, §3, §4

[15] = system: MKN45 gastric cancer cells; assay: antitumor activity, sulforhodamine B cell growth assay, MKN45; details: MKN45, drug exposure 48 hours, read-out: GI50 value: 50% growth inhibitory concentration
Procedure: as §1, §2, §3, §4

Row | SMILES | GI50 [1] | GI50 [2] | GI50 [3] | GI50 [4] | GI50 [5] | GI50 [6] | GI50 [7] | GI50 [8] | GI50 [9] | GI50 [10] | GI50 (ACHN kidney cancer cells) | GI50 (OVCAR-4 cancer cells) | GI50 [11] | GI50 [12] | GI50 [13] | GI50 [14] | GI50 [15] | other results
1 | COC1=C(C)C(=O)C2=C(C1=O)[C@H](CNC(=O)[C@H](C)N)N1C(C2)[C@H]2c3c(cc(C)c(OC)c3O)C[C@@H]([C@@H]1C#N)N2C (stereo partly shown) [Cyanosafracin B, reference compound] | 0.5 µM | 0.43 µM | 0.31 µM | 0.063 µM | 0.4 µM | 0.13 µM | 0.29 µM | 0.39 µM | 0.39 µM | 0.25 µM | 0.32 µM | 0.29 µM | 0.059 µM | 0.19 µM | 0.043 µM | 0.17 µM | 0.3 µM | GI50 (DMS114 lung cancer cells; listed as drawing 116): 0.035 µM; GI50 (DMS114 lung cancer cells; listed as drawing 148): 0.038 µM
2 | COc1c(C)cc2c(c1O)[C@@H]1[C@@H]3Cc4c5c(C)c6c(c4C(CNC(=O)[C@H](C)N(C)CC#CCO5)N3[C@@H](C#N)[C@H](C2)N1C)OCO6 [Compound 29] | – | 0.0038 µM | – | – | 0.0031 µM | – | – | – | – | 0.0035 µM | – | – | – | – | – | 0.003 µM | – | GI50 ([1]; Homo sapiens): 0.0034 µM; GI50 ([3]; Homo sapiens): 0.0025 µM; GI50 ([4]; Homo sapiens): 0.0031 µM; GI50 ([6]; Homo sapiens): 0.0023 µM; GI50 ([7]; Homo sapiens): 0.0024 µM; GI50 ([8]; Homo sapiens): 0.0032 µM; GI50 ([9]; Homo sapiens): 0.0039 µM; GI50 (ACHN kidney cancer cells; Homo sapiens): 0.0022 µM; GI50 (OVCAR-4 cancer cells; Homo sapiens): 0.0035 µM; GI50 ([11]; HBC4): 0.0015 µM; GI50 ([12]; Homo sapiens): 0.002 µM; GI50 ([13]; Homo sapiens): 0.0006 µM; GI50 (DMS114 lung cancer cells; Homo sapiens, DMS-114): 0.00089 µM; GI50 ([15]; Homo sapiens, MKN-45): 0.0013 µM
3 | COc1c(C)cc2c(c1O)C1C3Cc4c5c(C)c6c(c4C(CNC(=O)C(C)NCC=CCO5)N3C(C#N)C(C2)N1C)OCO6 (stereo not shown) [Compound 42] | 0.038 µM | 0.037 µM | 0.03 µM | 0.011 µM | 0.034 µM | < 0.01 µM | 0.021 µM | 0.047 µM | 0.047 µM | 0.036 µM | 0.042 µM | 0.055 µM | < 0.01 µM | 0.013 µM | < 0.01 µM | 0.025 µM | 0.016 µM | GI50 (DMS114 lung cancer cells): < 0.01 µM
